Test results as given in ChEMBL document CHEMBL5576110, “Identification of AdipoRon analogues as novel activators of AMPK for the treatment of type 2 diabetes” (RSC Med Chem, 2024).
The source made the active and inactive calls. The rule behind the calls is not given here.

Tests used:
C2C12 [1] = assay: Agonist activity at adiponectin receptor in mouse C2C12 cells assessed as increase in AMPK phosphorylation at 10 uM measured after 2 hrs by Western blot analysis; type: cell-based; conditions: filed as agonist
C2C12 [2] = assay: Induction of glucose consumption in mouse C2C12 cells at 10 uM measured after 12 hrs (reference value: 100%); type: functional
Mus musculus [3] = assay: Hypoglycemic activity in lean C57BL/6J mouse assessed as reduction in blood glucose level at 100 mg/kg, IG administered 2 hrs prior to glucose challenge measured up to 90 mins by IPGTT; type: functional, organism-based; conditions: time 3.5 hrs
[4] = Agonist activity at adiponectin receptor in mouse C2C12 cells assessed as increase in AMPK phosphorylation; type: cell-based
C2C12 [5] = assay: Agonist activity at adiponectin receptor in mouse C2C12 cells assessed as increase in ACC phosphorylation measured after 2 hrs by Western blot analysis; type: cell-based; conditions: filed as agonist, dose 0.1-20 µM
[6] = molecular target: 5'-AMP-activated protein kinase (Mus musculus) (UniProt Q5EG47+Q8BRK8+Q6PAM0+O54950+Q91WG5+Q9R078+Q8BGM7); assay: Induction of AMPK phosphorylation in mouse C2C12 cells at 10 uM measured after 1 to 12 hrs by Western blot analysis; type: cell-based; conditions: filed as activator, time 1-12 hrs
[7] = molecular target: T1, Acetyl-CoA carboxylase (Homo sapiens) (UniProt Q13085+O00763); assay: Induction of ACC phosphorylation in human HepG2 cells measured after 2 hrs by Western blot analysis; type: cell-based; conditions: filed as activator, dose 0.1-20 µM
HepG2 [8] = assay: Induction of AMPK phosphorylation in human HepG2 cells at 0.1 to 20 uM measured after 2 hrs by Western blot analysis; type: cell-based; conditions: filed as activator, dose 0.1-20 µM
[9] = molecular target: T1, Acetyl-CoA carboxylase (Homo sapiens); assay: Induction of ACC phosphorylation in human HepG2 cells measured at 10 uM by Western blot analysis; type: cell-based; conditions: filed as activator, time 0.5-12 hrs, TDE = time-dependent effect
HepG2 [10] = assay: Induction of AMPK in human HepG2 cells at 10 uM measured after 0.5 to 12 hrs by Western blot analysis; type: cell-based; conditions: filed as activator, time 0.5-12 hrs
C2C12 [11] = assay: Cytotoxicity against mouse C2C12 cells at 5 to 20 uM measured after 72 hrs by MTT assay; type: toxicity, cell-based; conditions: c2c12, 72 h, dose 5-20 µM
HepG2 [12] = assay: Cytotoxicity against human HepG2 cells at 5 to 20 uM measured after 72 hrs by MTT assay; type: toxicity, cell-based; conditions: hepg2, 72 h, dose 5-20 µM
[13] = Stability in human liver microsomes assessed as parent compound remaining preincubated for 5 mins followed by NADPH addition measured after 45 mins by LC/MS analysis; type: ADME, Microsome; conditions: time 50 min, read-out: Stability
[14] = Half life in human liver microsomes by LC/MS analysis; type: ADME, Microsome
[15] = Stability in mouse liver microsomes assessed as parent compound remaining preincubated for 5 mins followed by NADPH addition measured after 45 mins by LC/MS analysis; type: ADME, Microsome; conditions: time 50 min, read-out: Stability
[16] = Intrinsic clearance in human liver microsomes preincubated for 5 mins followed by NADPH addition measured after 45 mins by LC/MS analysis; type: ADME, Microsome; conditions: time 50 min, read-out: CLH
[17] = Half life in mouse liver microsomes by LC/MS analysis; type: ADME, Microsome
[18] = Intrinsic clearance in mouse liver microsomes preincubated for 5 mins followed by NADPH addition measured after 45 mins by LC/MS analysis; type: ADME, Microsome; conditions: time 50 min, read-out: CLH
Mus musculus [19] = assay: Hypoglycemic activity in IG dosed lean C57BL/6J mouse assessed as reduction in blood glucose level administered 2 hrs prior to glucose challenge measured up to 90 mins by IPGTT; type: functional, organism-based; conditions: dose 50-100 mg/kg, time 3.5 hrs
Mus musculus [20] = assay: Anti-hyperglycemic activity in db/db mouse assessed as reduction in blood glucose level at 100 mg/kg, IG administered once daily for 2 to 6 weeks measured weekly during compound dosing; type: functional, organism-based; conditions: time 2-6 weeks
Mus musculus [21] = assay: Anti-hyperglycemic activity in db/db mouse assessed as improvement in insulin resistance at 100 mg/kg, IG administered once daily for 6 weeks by insulin tolerance test; type: functional, organism-based
[22] = Toxicity in db/db mouse assessed as effect on body weight at 100 mg/kg, IG administered once daily for 2 to 6 weeks measured weekly during compound dosing; type: organism-based; conditions: in vivo, po, time 2-6 weeks
Mus musculus [23] = assay: Hypoglycemic activity in lean C57BL/6J mouse assessed as reduction in blood glucose level at 10 mg/kg, IG administered 2 hrs prior to glucose challenge measured up to 90 mins by IPGTT; type: functional, organism-based; conditions: time 3.5 hrs

| Structure (SMILES) | Activity (C2C12 [1]) | Activity (C2C12 [2]) [%] | other results |
| --- | --- | --- | --- |
| COc1cc(/C=C/C(=O)N2CCC(NC(=O)C(C)(C)Oc3ccc(C(=O)c4ccc(Cl)cc4)cc3)CC2)ccc1O | Active | 126.1 | – |
| O=C(COc1ccc(C(=O)c2ccccc2)cc1)NC1CCN(Cc2ccccc2)CC1 | Active | 135.2 | Activity (Mus musculus [3]): Active; EC50 [4]: ~10 µM |
| COc1ccc(/C=C/C(=O)N2CCN(C(=O)C(C)(C)Oc3ccc(C(=O)c4ccc(Cl)cc4)cc3)CC2)cc1OC | Active | 138.5 | – |
| COc1cc(/C=C/C(=O)NC2CCN(C(=O)C(C)(C)Oc3ccc(C(=O)c4ccccc4)cc3)CC2)ccc1O | Active | 128.5 | – |
| CC(C)(Oc1ccc(C(=O)c2ccccc2)cc1)C(=O)NC1CCN(C(=O)/C=C/c2ccccc2)CC1 | Active | 121.3 | – |
| CC(C)(Oc1ccc(C(=O)c2ccc(Cl)cc2)cc1)C(=O)N1CCC(NC(=O)/C=C/c2ccccc2)CC1 | Active | 113 | – |
| COc1ccc(/C=C/C(=O)NC2CCN(C(=O)C(C)(C)Oc3ccc(C(=O)c4ccc(Cl)cc4)cc3)CC2)cc1OC | Active | 118.3 | – |
| COc1ccc(/C=C/C(=O)N2CCC(NC(=O)C(C)(C)Oc3ccc(C(=O)c4ccc(Cl)cc4)cc3)CC2)cc1OC | Active | 125.1 | – |
| COc1ccc(/C=C/C(=O)N2CCC(NC(=O)C(C)(C)Oc3ccc(C(=O)c4ccccc4)cc3)CC2)cc1OC | Active | 104.5 | – |
| COc1cc(/C=C/C(=O)N2CCN(C(=O)C(C)(C)Oc3ccc(C(=O)c4ccc(Cl)cc4)cc3)CC2)ccc1O | Active | 141.7 | Activity (C2C12 [5]): Dose-Dependent Effect; Activity [6]: Active; Activity [7]: Dose-Dependent Effect; Activity (HepG2 [8]): Active; Activity [9]: Tde; Activity (HepG2 [10]): Active; Activity (C2C12 [11]): Non-Toxic; Activity (HepG2 [12]): Non-Toxic; remaining at 0.75 h [13]: 69%; half-life [14]: 87 min; remaining at 0.75 h [15]: 38%; CLint scaled [16]: 1.26 L/h/kg; half-life [17]: 33 min; CLint scaled [18]: 9.36 L/h/kg; Activity (Mus musculus [19]): Dose-Dependent Effect; Activity (Mus musculus [20]): Active; Activity (Mus musculus [21]): Active; Activity [22]: Non-Toxic |
| CC(C)(Oc1ccc(C(=O)c2ccccc2)cc1)C(=O)N1CCC(NC(=O)/C=C/c2ccccc2)CC1 | Active | 117.6 | – |
| COc1ccc(/C=C/C(=O)NC2CCN(C(=O)C(C)(C)Oc3ccc(C(=O)c4ccccc4)cc3)CC2)cc1OC | Active | 116.7 | – |
| CC(C)(Oc1ccc(C(=O)c2ccc(Cl)cc2)cc1)C(=O)N1CCN(C(=O)/C=C/c2ccccc2)CC1 | Active | 129 | – |
| COc1cc(/C=C/C(=O)N2CCC(NC(=O)C(C)(C)Oc3ccc(C(=O)c4ccccc4)cc3)CC2)ccc1O | Active | 115.2 | – |
| CC(C)(Oc1ccc(C(=O)c2ccccc2)cc1)C(=O)N1CCN(C(=O)/C=C/c2ccccc2)CC1 | Active | 132.5 | – |
| O=C(c1ccc(F)cc1)C1CCN(CCn2c(=O)[nH]c3ccccc3c2=O)CC1 [KETANSERIN] | – | – | remaining at 0.75 h [13]: 31%; half-life [14]: 28 min; remaining at 0.75 h [15]: 29%; half-life [17]: 26 min; CLint scaled [18]: 14.7 L/h/kg |
| CC(C)(Oc1ccc(C(=O)c2ccc(Cl)cc2)cc1)C(=O)NC1CCN(C(=O)/C=C/c2ccccc2)CC1 | Active | 117.3 | – |
| COc1ccc(/C=C/C(=O)N2CCN(C(=O)C(C)(C)Oc3ccc(C(=O)c4ccccc4)cc3)CC2)cc1OC | Active | 135.8 | – |
| O[C@@H]1CO[C@H]2[C@@H]1OC[C@H]2Oc1nc2nc(-c3ccc(-c4ccccc4)cc3)c(Cl)cc2[nH]1 | – | – | Activity (Mus musculus [23]): Active |
| COc1cc(/C=C/C(=O)N2CCN(C(=O)C(C)(C)Oc3ccc(C(=O)c4ccccc4)cc3)CC2)ccc1O | Active | 136.4 | – |
